Where two headings read alike, the source gives them in different places.
Tests used:
[1] = test system: lncap (prostate cancer cells); assay: MTT cancer cell growth inhibition; type: cell-based; settings: Homo sapiens, LNCaP, 72 h, MTT
Summary of the method: (§1)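 GI50 values come from MTT viability: after 72 h compound exposure (final 10^−5–10^−10 M, three wells each) of cells plated overnight at 1500/well in 10% FBS medium, MTT was given for 4 h. The DMSO-solubilised formazan was then measured at 570 nm.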

[2] = test system: MDA-MB-231 (breast cancer cells); assay: MTT cancer cell growth inhibition; type: cell-based; settings: Homo sapiens, MDA-MB-231, 72 h, read-out: GI50 MDA-MB-231, MTT, 72 hours incubation, MDA-MB-231 cells
Summary of the method: as §1

[3] = test system: KBM5-T315I (human chronic myelogenous leukemia); assay: MTT cancer cell growth inhibition; type: cell-based; settings: Homo sapiens, 72 h, MTT, 72 hours incubation, KBM5-T315I cells; read-out: GI50 KBM5-T315I
Summary of the method: as §1

[4] = test system: H1975 (non-small cell lung adenocarcinoma); assay: MTT cancer cell growth inhibition; type: cell-based; settings: Homo sapiens, NCI-H1975, 72 h, MTT, 72 hours incubation, H1975 cells; read-out: GI50 H1975
Summary of the method: as §1

[5] = test system: PANC-1 (Pac-1, human pancreatic cancer cells); assay: MTT cancer cell growth inhibition; type: cell-based; settings: Homo sapiens, PANC-1, 72 h, MTT
Summary of the method: as §1

[6] = test system: U937 (human leukemia cells); assay: MTT cancer cell growth inhibition; type: cell-based; settings: Homo sapiens, U-937, 72 h, MTT
Summary of the method: as §1

[7] = test system: Huh-7 (human hepatoma cells); assay: MTT cancer cell growth inhibition; type: cell-based; settings: Homo sapiens, Huh-7, 72 h, MTT, 72 hours incubation, Huh-7 cells; read-out: GI50 Huh-7
Summary of the method: as §1

[8] = test system: BGC-823 (human gastric cancer cells); assay: MTT cancer cell growth inhibition; type: cell-based; settings: Homo sapiens, BGC-823, 72 h, MTT
Summary of the method: as §1

[9] = test system: MOLT-4 (human acute lymphoblastic leukemia cells); assay: MTT cancer cell growth inhibition; type: cell-based; settings: Homo sapiens, MOLT-4, 72 h, MTT
Summary of the method: as §1

[10] = test system: HCC827 (human non-small cell lung cancer cells); assay: MTT cancer cell growth inhibition; type: cell-based; settings: Homo sapiens, HCC827, 72 h, MTT, 72 hours incubation, HCC827 cells; read-out: GI50 HCC827
Summary of the method: as §1

[11] = test system: HT1080 (human fibrosarcoma cells); assay: MTT cancer cell growth inhibition; type: cell-based; settings: Homo sapiens, HT-1080, 72 h, MTT
Summary of the method: as §1

[12] = test system: MCF-7 (human breast cancer cells); assay: MTT cancer cell growth inhibition; type: cell-based; settings: Homo sapiens, MCF7, 72 h
Summary of the method: as §1

[13] = test system: A549 (human lung cancer cells); assay: MTT cancer cell growth inhibition; type: cell-based; settings: Homo sapiens, A549, 72 h, MTT
Summary of the method: as §1

[14] = test system: Bel-7402 (human hepatoma cells); assay: MTT cancer cell growth inhibition; type: cell-based; settings: Homo sapiens, Bel-7402, 72 h, MTT, 72 hours incubation, Bel-7402 cells; read-out: GI50 Bel-7402
Summary of the method: as §1

[15] = test system: K562 (human leukemia cells); assay: MTT cancer cell growth inhibition; type: cell-based; settings: Homo sapiens, K562, 72 h, MTT, 72 hours incubation, K562 cells; read-out: GI50 K562
Summary of the method: as §1

[16] = test system: DU145 (human prostate cancer cells); assay: MTT cancer cell growth inhibition; type: cell-based; settings: Homo sapiens, DU-145, 72 h, MTT
Summary of the method: as §1

[17] = test system: KBM-5 (human chronic myelogenous leukemia); assay: MTT cancer cell growth inhibition; type: cell-based; settings: Homo sapiens, KBM5, 72 h, MTT, 72 hours incubation, KBM-5 cells; read-out: GI50 KBM-5
Summary of the method: as §1

[18] = test system: SGC-7901 (human gastric cancer cells); assay: MTT cancer cell growth inhibition; type: cell-based; settings: Homo sapiens, SGC-7901, 72 h, MTT, 72 hours incubation, SGC-7901 cells; read-out: GI50 SGC-7901
Summary of the method: as §1

[19] = test system: Hela (human cervical cancer cells); assay: MTT cancer cell growth inhibition; type: cell-based; settings: Homo sapiens, HeLa, 72 h, MTT
Summary of the method: as §1

[20] = test system: N-87 (human gastric cancer cells); assay: MTT cancer cell growth inhibition; type: cell-based; settings: Homo sapiens, 72 h, MTT, 72 hours incubation, N-87 cells; read-out: GI50 N-87
Summary of the method: as §1

HDAC1 = HDAC1 (Homo sapiens, UniProt Q13547); assay: HDAC biochemical activity measurement (fluorescent substrate deacetylation);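 note: fluorogenic acetyl-lysine substrate (20 µM) deacetylated by HDAC1, then developer releases fluorophore read at 360 nm excitation and 460 nm emission, inhibitor incubated 30 min at 37 °C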
HDAC3 = HDAC3 (Homo sapiens, UniProt O15379); assay: as above;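 note: fluorogenic acetyl-lysine substrate (20 µM) deacetylated by HDAC3, then developer added for 15 min at room temperature, release of fluorophore read at excitation 360 nm, emission 460 nm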
Method: The chemical activity of the compound is determined according to the degree of deacetylation inhibition of the HDAC enzyme. This experiment measured the degree of deacetylation related to tumor proliferation and metastasis of HDAC1, HDAC2, HDAC3, HDAC8, HDAC11 five subtypes HDAC enzymes. After the substrate containing an acetylated lysine side chain and HDAC enzyme are labeled with a fluorescent label, the fluorescent substrate is de acetyl. The fluorescent labeled substrate is cleaved by the enzyme, and the fluorescent substance is released, which generates 460 nm emission light under the excitation of 360 nm light.
HDAC substrate was diluted with reaction buffer to 200M (reaction concentration of 20M), the HDAC enzyme was diluted to the appropriate concentration, then added different concentrations of the test compounds and acted at 37° C. 30 minutes, and then added the same volume of 2-times concentration substrate developing solution (developer), incubated at room temperature for 15 minutes.

HDAC2 = HDAC2 (Homo sapiens, UniProt Q92769); assay: as above; settings: 37° C. 30 minutes;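 note: HDAC2 enzyme with an acetyl-lysine fluorescent substrate, then developer added, fluorescence read at excitation 360 nm and emission 460 nm, inhibition measured across several compound concentrations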
[21] = 72 hours incubation, read-out: GI50 lnca
[22] = 72 hours incubation, read-out: GI50 PAN
[23] = 72 hours incubation, read-out: GI50 U93
[24] = 72 hours incubation, read-out: GI50 BG
[25] = 72 hours incubation, read-out: GI50 Mol
[26] = 72 hours incubation, read-out: GI50 HT1
[27] = 72 hours incubation, read-out: GI50 MCF
[28] = 72 hours incubation, read-out: GI50 A54
[29] = 72 hours incubation, read-out: GI50 Du1
[30] = 72 hours incubation, read-out: GI50 Hela
[31] = HDAC1, 37° C. 30 minutes, read-out: IC50 HDAC1
[32] = Table 3, read-out: IC50 HDAC1, D (non-substituent)
[33] = read-out: IC50 HDAC3, HDAC3, 37° C. 30 minutes
[34] = Table 3, column C, read-out: IC50 HDAC1, C (six-membered ring with substituents)

Sequence of HDAC1 (Q13547 whole entry, species assumed): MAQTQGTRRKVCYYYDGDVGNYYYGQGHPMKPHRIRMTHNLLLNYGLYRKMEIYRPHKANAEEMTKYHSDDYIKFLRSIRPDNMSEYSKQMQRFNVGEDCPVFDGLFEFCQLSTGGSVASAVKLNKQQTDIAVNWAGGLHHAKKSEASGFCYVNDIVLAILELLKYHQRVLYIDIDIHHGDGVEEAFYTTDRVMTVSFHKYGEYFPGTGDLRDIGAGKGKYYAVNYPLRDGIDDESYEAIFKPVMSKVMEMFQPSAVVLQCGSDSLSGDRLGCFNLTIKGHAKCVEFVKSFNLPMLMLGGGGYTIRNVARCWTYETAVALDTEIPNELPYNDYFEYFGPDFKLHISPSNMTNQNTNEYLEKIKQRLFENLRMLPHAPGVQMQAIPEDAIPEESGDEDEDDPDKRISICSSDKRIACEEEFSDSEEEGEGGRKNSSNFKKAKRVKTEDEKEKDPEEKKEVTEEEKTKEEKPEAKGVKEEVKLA
Sequence of HDAC3 (O15379 whole entry, species assumed): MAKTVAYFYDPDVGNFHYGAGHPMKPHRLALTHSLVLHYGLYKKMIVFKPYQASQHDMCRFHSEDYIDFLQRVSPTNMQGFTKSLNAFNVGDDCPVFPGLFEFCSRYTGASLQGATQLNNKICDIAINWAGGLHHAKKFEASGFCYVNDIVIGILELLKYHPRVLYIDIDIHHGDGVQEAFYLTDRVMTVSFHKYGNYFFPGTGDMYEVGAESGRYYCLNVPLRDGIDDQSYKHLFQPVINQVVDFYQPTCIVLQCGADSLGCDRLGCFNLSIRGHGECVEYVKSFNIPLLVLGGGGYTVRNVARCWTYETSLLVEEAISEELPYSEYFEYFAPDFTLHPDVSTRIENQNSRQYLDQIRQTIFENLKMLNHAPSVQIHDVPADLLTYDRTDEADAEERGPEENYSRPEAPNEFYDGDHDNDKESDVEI
Sequence of HDAC3 (Q9Y618 395-489 partner limits assumed, species assumed): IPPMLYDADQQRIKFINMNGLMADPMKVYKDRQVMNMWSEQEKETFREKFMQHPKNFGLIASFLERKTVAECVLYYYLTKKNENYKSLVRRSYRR
Sequence of HDAC2 (Q92769 whole entry, species assumed): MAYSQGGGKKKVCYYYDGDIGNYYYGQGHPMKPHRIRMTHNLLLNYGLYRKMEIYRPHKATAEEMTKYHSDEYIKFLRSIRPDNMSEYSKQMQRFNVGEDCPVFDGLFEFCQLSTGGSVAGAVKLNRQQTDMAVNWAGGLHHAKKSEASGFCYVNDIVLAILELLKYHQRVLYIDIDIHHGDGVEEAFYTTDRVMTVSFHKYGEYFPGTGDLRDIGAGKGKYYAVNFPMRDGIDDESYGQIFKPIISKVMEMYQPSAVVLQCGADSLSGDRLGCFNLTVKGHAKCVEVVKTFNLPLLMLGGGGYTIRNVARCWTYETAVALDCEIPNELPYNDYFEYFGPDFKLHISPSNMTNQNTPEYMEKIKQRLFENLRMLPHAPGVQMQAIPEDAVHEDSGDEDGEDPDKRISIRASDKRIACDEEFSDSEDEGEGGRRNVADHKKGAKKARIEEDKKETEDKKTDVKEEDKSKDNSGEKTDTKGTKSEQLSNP

Row | Compound | GI50 [1, 21] [nM] | GI50 [2] [nM] | GI50 [3] [nM] | GI50 [4] [nM] | GI50 [5, 22] [nM] | GI50 [6, 23] [nM] | GI50 [7] [nM] | GI50 [8, 24] [nM] | GI50 [9, 25] [nM] | GI50 [10] [nM] | GI50 [11, 26] [nM] | GI50 [12, 27] [nM] | GI50 [13, 28] [nM] | GI50 [14] [nM] | GI50 [15] [nM] | GI50 [17] [nM] | GI50 [18] [nM] | GI50 [20] [nM] | IC50 (HDAC1; [31]) [nM] | IC50 (HDAC2) [nM] | also measured
1 | C/C=C1\NC(=O)c2cccc(n2)CNC(=O)C[C@@H](/C=C/CCSC(C)=O)OC(=O)[C@H](Cc2ccccc2)NC1=O [Compound 13] | 100 | 81 | 11 | 53 | 70 | 80 | 85 | 100 | 20 | 29 | 200 | 300 | 50 | 85 | 25 | 84 | 42 | 31 | 187 | 261 | GI50 [16, 29]: 20 nM; GI50 [19, 30]: 90 nM; IC50 (HDAC1; [32]): 187 nM; IC50 (HDAC3; [33]): 337 nM
2 | C/C=C1\NC(=O)c2cccc(n2)CNC(=O)C[C@@H](/C=C/CCSC(=O)CCCCCCC)OC(=O)[C@H](Cc2cccc3ccccc23)NC1=O [Compound 239] |  | 25 | 23 | 91 |  |  | 51 |  |  | 31 |  |  |  | 28 | 63 | 29 | 35 | 46 | 77 | 56 | GI50 ([1]; 72 hours, present invention, read-out: GI50 lncap, a): 17 nM; GI50 ([1]; lncap cells, 72 hours incubation, read-out: GI50 lnca): 10 nM; GI50 ([5]; 72 hours, present invention, read-out: GI50 PANC-1, a): 130 nM; GI50 ([5]; PANC-1 cells, 72 hours incubation, read-out: GI50 PAN): 130 nM; GI50 ([6]; 72 hours, present invention, read-out: GI50 U937, a): 3 nM; GI50 ([8]; BGC-823 cells, 72 hours incubation, read-out: GI50 BG): 20 nM; GI50 ([8]; 72 hours, present invention, read-out: GI50 BGC823, a): 22 nM; GI50 ([9]; 72 hours, present invention, read-out: GI50 Molt-4, a): 4 nM; GI50 ([11]; HT1080 cells, 72 hours incubation, read-out: GI50 HT1): 10 nM; GI50 ([11]; 72 hours, present invention, read-out: GI50 HT1080, a): 11 nM; GI50 ([12]; 72 hours, present invention, read-out: GI50 MCF7, a): 19 nM; GI50 ([12]; MCF-7 cells, 72 hours incubation, read-out: GI50 MCF): 10 nM; GI50 ([13]; A549 cells, 72 hours incubation, read-out: GI50 A54): 10 nM; GI50 ([13]; 72 hours, present invention, read-out: GI50 A549, a): 12 nM; GI50 ([16]; 72 hours, present invention, read-out: GI50 Du145, a): 1 nM; GI50 ([19]; Hela cells, 72 hours incubation, read-out: GI50 Hela): 11 nM; GI50 ([19]; 72 hours, present invention, read-out: GI50 Hela, a): 11 nM; IC50 (HDAC1; Table 2, read-out: IC50 HDAC1, a (compounds of the present invention)): < 100 nM; IC50 (HDAC3; [33]): 47 nM
3 | C/C=C1\NC(=O)c2ccc(F)c(n2)CNC(=O)C[C@@H](/C=C/CCSC(=O)CCCCCCC)OC(=O)[C@H](C)NC1=O [Example 62] | 30 | 31 | 64 | 26 | 80 | 20 | 31 | 60 | 30 | 83 | 80 | 60 | 40 | 83 | 16 | 91 | 46 | 64 | 46 | 27 | GI50 [16, 29]: 10 nM; GI50 [19, 30]: 90 nM; IC50 (HDAC3): 37 nM

More lines, in order of falling GI50 [2], values ahead:

Row | GI50 [1, 21] [nM] | GI50 [2] [nM] | GI50 [3] [nM] | GI50 [4] [nM] | GI50 [5, 22] [nM] | GI50 [6, 23] [nM] | GI50 [7] [nM] | GI50 [8, 24] [nM] | GI50 [9, 25] [nM] | GI50 [10] [nM] | GI50 [11, 26] [nM] | GI50 [12, 27] [nM] | GI50 [13, 28] [nM] | GI50 [14] [nM] | GI50 [15] [nM] | GI50 [17] [nM] | GI50 [18] [nM] | GI50 [20] [nM] | IC50 (HDAC1; [31]) [nM] | IC50 (HDAC2) [nM] | Compound | also measured
4 | 400 | 91 | 16 | 38 | 2580 | 1120 | 73 | 1220 | 19700 | 51 | 38700 | 19800 | 2300 | 86 | 26 | 95 | 53 | 29 | 191 | 47 | C/C=C1\NC(=O)c2cccc(n2)CNC(=O)C[C@@H](/C=C/CCSC(C)=O)OC(=O)[C@H](CCCCN)NC1=O [Compound 15] | GI50 [16, 29]: 480 nM; GI50 [19, 30]: 15700 nM; IC50 (HDAC1; [32]): 191 nM; IC50 (HDAC3; [33]): 57 nM
5 | 30 | 39 | 82 | 61 | 40 | 60 | 39 | 60 | 30 | 49 | 40 | 80 | 50 | 49 | 26 | 69 | 51 | 61 | 32 | 21 | C/C=C1\NC(=O)c2cc(F)cc(n2)CNC(=O)C[C@@H](/C=C/CCSC(C)=O)OC(=O)[C@H](CC)NC1=O [Compound 58] | GI50 [16, 29]: 20 nM; GI50 [19, 30]: 60 nM; IC50 (HDAC1; [34]): 32 nM; IC50 (HDAC3; [33]): 29 nM
6 | 30 | 38 | 31 | 27 | 30 | 20 | 38 | 60 | 30 | 34 | 30 | 30 | 20 | 34 | 37 | 91 | 25 | 61 | 41 | 16 | C/C=C1\NC(=O)c2nc(ccc2C)CNC(=O)C[C@@H](/C=C/CCSC(C)=O)OC(=O)[C@H](Cc2ccccc2)NC1=O [Compound 66] | GI50 [16, 29]: 30 nM; GI50 [19, 30]: 90 nM; IC50 (HDAC1; [34]): 41 nM; IC50 (HDAC3; [33]): 31 nM

Reference: US10065990B2, “Cyclic peptide compound, and preparation method, pharmaceutical composition and use thereof” (HANGZHOU GUANYU BIO-MEDICAL CO., LTD, priority 2013, dated 2018)
